Data taken from ChEMBL document CHEMBL2046424, “Synthesis and anti Methicillin resistant Staphylococcus aureus activity of substituted chalcones alone and in combination with non-beta-lactam antibiotics” (2012).
≈ marks a conversion by molar mass, not a printed value. Calls of active or inactive are those of the source. No cut-off for these calls is given here.

Columns and labels:
[1] = tested on: Staphylococcus aureus; assay: Antibacterial activity against methicillin-resistant Staphylococcus aureus ATCC 43300 at 256 ug/ml after 24 hrs by disc diffusion method; format: functional, organism-based
[2] = tested on: Staphylococcus aureus; assay: Antibacterial activity against methicillin-sensitive Staphylococcus aureus ATCC 25923 at 256 ug/ml after 24 hrs by disc diffusion method; format: functional, organism-based
[3] = tested on: Staphylococcus aureus; assay: Antibacterial activity against methicillin-resistant Staphylococcus aureus ATCC 43300 after 24 hrs by microdilution method; format: functional
[4] = tested on: Staphylococcus aureus; assay: Antibacterial activity against methicillin-sensitive Staphylococcus aureus ATCC 25923 after 24 hrs by microdilution method; format: functional
[5] = tested on: Staphylococcus aureus; assay: Antibacterial activity against methicillin-resistant Staphylococcus aureus ATCC 43300 after 24 hrs by microdilution method in presence of non-beta lactam antibiotic Doxycycline; format: functional
[6] = tested on: Staphylococcus aureus; assay: Antibacterial activity against methicillin-sensitive Staphylococcus aureus ATCC 25923 after 24 hrs by microdilution method in presence of non-beta lactam antibiotic Doxycycline; format: functional
[7] = tested on: Staphylococcus aureus; assay: Antibacterial activity against methicillin-sensitive Staphylococcus aureus ATCC 25923 at 102.4 mg/ml after 24 hrs by disc diffusion method; format: functional; conditions: ATCC 25923, 24 h, read-out: DIZ
[8] = tested on: Staphylococcus aureus; assay: Antibacterial activity against methicillin-resistant Staphylococcus aureus ATCC 43300 at 102.4 mg/ml after 24 hrs by disc diffusion method; format: functional; conditions: ATCC 43300, 24 h, read-out: DIZ
[9] = tested on: Staphylococcus aureus; assay: Antibacterial activity against methicillin-resistant Staphylococcus aureus ATCC 43300 at 30 ug/ml after 24 hrs by disc diffusion method; format: functional; conditions: ATCC 43300, 24 h, read-out: DIZ
[10] = tested on: Staphylococcus aureus; assay: Antibacterial activity against methicillin-sensitive Staphylococcus aureus ATCC 25923 at 30 ug/ml after 24 hrs by disc diffusion method; format: functional; conditions: ATCC 25923, 24 h, read-out: DIZ
[11] = tested on: Staphylococcus aureus; assay: Antibacterial activity against methicillin-resistant Staphylococcus aureus ATCC 43300 after 24 hrs by microdilution method in presence of non-beta lactam antibiotic ciprofloxacin; format: functional
[12] = tested on: Staphylococcus aureus; assay: microbe, parasite or virus in culture; conditions: ATCC 25923, 24 h, read-out: DIZ
Description: Antibacterial activity against methicillin-sensitive Staphylococcus aureus ATCC 25923 at 5 ug/ml after 24 hrs by disc diffusion method

[13] = tested on: Staphylococcus aureus; assay: microbe, parasite or virus in culture; conditions: ATCC 43300, 24 h, read-out: DIZ
Description: Antibacterial activity against methicillin-resistant Staphylococcus aureus ATCC 43300 at 5 ug/ml after 24 hrs by disc diffusion method

[14] = tested on: Staphylococcus aureus; assay: Antibacterial activity against methicillin-sensitive Staphylococcus aureus ATCC 25923 after 24 hrs by microdilution method in presence of non-beta lactam antibiotic ciprofloxacin; format: functional
[15] = tested on: Staphylococcus aureus; assay: Antibacterial activity against methicillin-sensitive Staphylococcus aureus ATCC 25923 at 15 ug/ml after 24 hrs by disc diffusion method; format: functional; conditions: ATCC 25923, 24 h, read-out: DIZ
[16] = tested on: Staphylococcus aureus; assay: Antibacterial activity against methicillin-resistant Staphylococcus aureus ATCC 43300 at 15 ug/disc after 24 hrs by disc diffusion method; format: functional, organism-based
[17] = tested on: Staphylococcus aureus; assay: Antibacterial activity against methicillin-sensitive Staphylococcus aureus ATCC 25923 at 2 ug/ml after 24 hrs by disc diffusion method; format: functional; conditions: ATCC 25923, 24 h, read-out: DIZ
[18] = tested on: Staphylococcus aureus; assay: Antibacterial activity against methicillin-resistant Staphylococcus aureus ATCC 43300 at 2 ug/disc after 24 hrs by disc diffusion method; format: functional, organism-based
[19] = tested on: Staphylococcus aureus; assay: Antibacterial activity against methicillin-sensitive Staphylococcus aureus ATCC 25923 after 24 hrs by microdilution method in presence of non-beta lactam antibiotic gentamycin; format: functional
[20] = tested on: Staphylococcus aureus; assay: Antibacterial activity against methicillin-resistant Staphylococcus aureus ATCC 43300 after 24 hrs by microdilution method in presence of non-beta lactam antibiotic gentamycin; format: functional

Compound | diameter of the inhibition zone (DIZ) [1] | diameter of the inhibition zone (DIZ) [2] | other results
O=C(/C=C/c1ccc(Cl)cc1)c1ccccc1O | inactive | inactive | 
COc1ccc(C(=O)/C=C/c2cc(OC)c(OC)c(OC)c2)c(O)c1 | inactive | inactive | 
COc1ccc2cc3[n+](cc2c1OC)CCc1cc2c(cc1-3)OCO2 [BERBERINE] |  |  | MIC ([3]; ATCC 43300, 24 h): 128 µg/mL
O=C(/C=C/c1ccccc1O)c1ccc(Br)cc1 |  |  | MIC ([4]; ATCC 25923, 24 h): 32 µg/mL (≈ 106 µM); MIC ([3]; ATCC 43300, 24 h): 64 µg/mL (≈ 211 µM); fractional inhibitory concentration index (FICI) [5]: 0.62; fractional inhibitory concentration index (FICI) [6]: 0.37; zone of inhibition at 102400 µg/mL [7]: 13 mm; zone of inhibition at 102400 µg/mL [8]: 13 mm
COc1ccccc1/C=C/C(=O)c1ccc(Br)cc1 | inactive | inactive | 
O=C(/C=C/c1ccc(Cl)c(Cl)c1)c1ccccc1O | inactive | inactive | 
CN[C@H](CC(C)C)C(=O)N[C@H]1C(=O)N[C@@H](CC(N)=O)C(=O)N[C@H]2C(=O)N[C@H]3C(=O)N[C@H](C(=O)N[C@H](C(=O)O)c4cc(O)cc(O)c4-c4cc3ccc4O)[C@H](O)c3ccc(c(Cl)c3)Oc3cc2cc(c3O[C@@H]2O[C@H](CO)[C@@H](O)[C@H](O)[C@H]2O[C@H]2C[C@](C)(N)[C@H](O)[C@H](C)O2)Oc2ccc(cc2Cl)[C@H]1O [VANCOMYCIN] |  |  | zone of inhibition at 30 µg/mL [9]: 16 mm; MIC ([3]; ATCC 43300, 24 h): 8 µg/mL (≈ 5.52 µM); zone of inhibition at 30 µg/mL [10]: 17 mm
O=C(/C=C/c1ccccc1O)c1ccccc1 |  |  | MIC ([4]; ATCC 25923, 24 h): 32 µg/mL (≈ 143 µM); MIC ([3]; ATCC 43300, 24 h): 64 µg/mL (≈ 285 µM); fractional inhibitory concentration index (FICI) [5]: 0.15; fractional inhibitory concentration index (FICI) [6]: 0.31; zone of inhibition at 102400 µg/mL [7]: 11 mm; zone of inhibition at 102400 µg/mL [8]: 11 mm; fractional inhibitory concentration index (FICI) [11]: 0.75
O=C(O)c1cn(C2CC2)c2cc(N3CCNCC3)c(F)cc2c1=O [CIPROFLOXACIN] |  |  | MIC ([4]; ATCC 25923, 24 h): 0.25 µg/mL (≈ 0.754 µM); MIC ([3]; ATCC 43300, 24 h): 0.5 µg/mL (≈ 1.51 µM); zone of inhibition at 5 µg/mL [12]: 27 mm; zone of inhibition at 5 µg/mL [13]: 21 mm
COc1ccc(/C=C/C(=O)c2ccccc2O)cc1OC | inactive | inactive | 
O=C(/C=C/c1ccc(O)cc1)c1ccccc1 [4-HYDROXYCHALCONE] |  |  | MIC ([4]; ATCC 25923, 24 h): 64 µg/mL (≈ 285 µM); fractional inhibitory concentration index (FICI) [14]: 0.31; MIC ([3]; ATCC 43300, 24 h): 32 µg/mL (≈ 143 µM); fractional inhibitory concentration index (FICI) [5]: 0.62; zone of inhibition at 102400 µg/mL [7]: 10 mm; zone of inhibition at 102400 µg/mL [8]: 9 mm; fractional inhibitory concentration index (FICI) [11]: 0.25
CC[C@H]1OC(=O)[C@H](C)[C@@H](O[C@H]2C[C@@](C)(OC)[C@@H](O)[C@H](C)O2)[C@H](C)[C@@H](O[C@@H]2O[C@H](C)C[C@H](N(C)C)[C@H]2O)[C@](C)(O)C[C@@H](C)C(=O)[C@H](C)[C@@H](O)[C@]1(C)O [ERYTHROMYCIN] |  |  | zone of inhibition at 15 µg/mL [15]: 25 mm; diameter of the inhibition zone (DIZ) [16]: inactive
COc1ccc(C(=O)/C=C/c2ccc(Cl)c(Cl)c2)c(O)c1 | inactive | inactive | 
COc1cccc(/C=C/C(=O)c2ccccc2)c1OC | inactive | inactive | 
COc1ccc(/C=C/C(=O)c2ccccc2)cc1 | inactive | inactive | 
O=C(N[C@H](CO)[C@H](O)c1ccc([N+](=O)[O-])cc1)C(Cl)Cl [CHLORAMPHENICOL] |  |  | zone of inhibition at 30 µg/mL [9]: 26 mm; zone of inhibition at 30 µg/mL [10]: 25 mm
COc1ccc(/C=C/C(=O)c2ccccc2O)c(OC)c1 | inactive | inactive | 
GENTAMICIN |  |  | MIC [4]: 1 µg/mL; MIC [3]: 4 µg/mL
COc1ccc(/C=C/C(=O)c2ccc(Br)cc2)cc1 | inactive | inactive | 

Compound | diameter of the inhibition zone (DIZ) [1] | diameter of the inhibition zone (DIZ) [2] | other results
COc1ccc(C(=O)/C=C/c2ccc(Cl)cc2)c(O)c1 | inactive | inactive | 
COc1ccc(/C=C/C(=O)c2ccc(OC)cc2O)cc1 | inactive | inactive | 
COc1ccc(C(=O)/C=C/c2ccc(OC)c(OC)c2)c(O)c1 | inactive | inactive | 
COc1ccc(/C=C/C(=O)c2ccccc2)cc1OC | inactive | inactive | 
O=C(/C=C/c1ccccc1)c1ccccc1O | inactive | inactive | 
CCC[C@@H]1C[C@@H](C(=O)N[C@@H]([C@H]2O[C@H](SC)[C@H](O)[C@@H](O)[C@H]2O)[C@H](C)Cl)N(C)C1 [CLINDAMYCIN] |  |  | zone of inhibition at 2 µg/mL [17]: 24 mm; diameter of the inhibition zone (DIZ) [18]: inactive
COc1cc(/C=C/C(=O)c2ccccc2O)cc(OC)c1OC | inactive | inactive | 
COc1ccc(C(=O)/C=C/c2ccccc2)c(O)c1 | inactive | inactive | 
O=C(/C=C/c1ccccc1)c1ccc(Br)cc1 | inactive | inactive | 
COc1ccccc1/C=C/C(=O)c1ccccc1 | inactive | inactive | 
C[C@H]1c2cccc(O)c2C(=O)C2=C(O)[C@]3(O)C(=O)C(C(N)=O)=C(O)[C@@H](N(C)C)[C@@H]3[C@@H](O)[C@@H]21.O [DOXYCYCLINE] |  |  | MIC ([4]; ATCC 25923, 24 h): 8 µg/mL; zone of inhibition at 30 µg/mL [9]: 27 mm; MIC ([3]; ATCC 43300, 24 h): 4 µg/mL; zone of inhibition at 30 µg/mL [10]: 27 mm
COc1ccc(C(=O)/C=C/c2ccc(OC)cc2OC)c(O)c1 | inactive | inactive | 
COc1cccc(/C=C/C(=O)c2ccc(Br)cc2)c1 | inactive | inactive | 
COc1ccccc1/C=C/C(=O)c1ccccc1O | inactive | inactive | 
O=C(/C=C/c1ccccc1O)c1ccccc1O |  |  | MIC ([4]; ATCC 25923, 24 h): 64 µg/mL (≈ 266 µM); fractional inhibitory concentration index (FICI) [14]: 1.5; MIC ([3]; ATCC 43300, 24 h): 64 µg/mL (≈ 266 µM); fractional inhibitory concentration index (FICI) [5]: 0.15; fractional inhibitory concentration index (FICI) [19]: 0.36; fractional inhibitory concentration index (FICI) [6]: 0.25; zone of inhibition at 102400 µg/mL [7]: 14 mm; fractional inhibitory concentration index (FICI) [20]: 0.5; zone of inhibition at 102400 µg/mL [8]: 14 mm; fractional inhibitory concentration index (FICI) [11]: 0.62
COc1ccc(/C=C/C(=O)c2ccccc2O)cc1 | inactive | inactive | 
COc1ccc(/C=C/C(=O)c2ccc(Br)cc2)cc1OC | inactive | inactive | 
O=C(/C=C/c1ccccc1)c1ccccc1 | inactive | inactive | 
COc1cccc(/C=C/C(=O)c2ccc(Br)cc2)c1OC | inactive | inactive | 
